Experimental data reported in patent US10144746B2 (GLOBAL BLOOD THERAPEUTICS, INC., priority 2015, dated 2018).

Biological target: Human plasma kallikrein (Homo sapiens (Human), UniProt P03952)
Assay: In vitro plasma kallikrein inhibition assay (chromogenic substrate D-Pro-Phe-Arg-pNa, absorbance at 405 nm, IC50 determination)
Format: biochemical
Details: read-out: KLKB1 pIC50 (converted)

Sequence of Human plasma kallikrein (P03952 391-638): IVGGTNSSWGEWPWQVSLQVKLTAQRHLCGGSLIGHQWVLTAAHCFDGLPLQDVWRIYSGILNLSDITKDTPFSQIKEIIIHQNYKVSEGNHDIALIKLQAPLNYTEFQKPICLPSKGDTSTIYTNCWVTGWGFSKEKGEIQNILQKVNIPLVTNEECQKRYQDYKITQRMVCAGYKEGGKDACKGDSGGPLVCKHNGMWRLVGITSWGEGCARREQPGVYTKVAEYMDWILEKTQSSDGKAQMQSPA
Sequence of Human plasma kallikrein (P03952 20-390 partner): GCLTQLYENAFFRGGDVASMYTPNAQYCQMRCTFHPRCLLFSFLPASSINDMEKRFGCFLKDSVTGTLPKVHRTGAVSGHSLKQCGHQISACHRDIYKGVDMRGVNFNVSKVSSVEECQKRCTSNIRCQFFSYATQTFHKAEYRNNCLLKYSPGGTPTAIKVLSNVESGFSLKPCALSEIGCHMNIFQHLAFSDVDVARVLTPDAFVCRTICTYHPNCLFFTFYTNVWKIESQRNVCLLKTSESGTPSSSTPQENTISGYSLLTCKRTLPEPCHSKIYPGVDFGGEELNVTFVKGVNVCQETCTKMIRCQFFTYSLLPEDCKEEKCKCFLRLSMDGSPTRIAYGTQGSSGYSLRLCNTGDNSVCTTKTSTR

## COc1cc(N)nc(C)c1CNC(=O)c1ccc2c(c1)C1OC2c2ccc(-c3ccc(C)cc3C#N)cc21 (racemic) [Example 105]
  IC50: 0.0151 µM
